Measured values published in patent US20190105367A1, “ANTIMICROBIAL 4-OXOQUINOLIZINES” (Emergent Product Development Gaithersburg Inc., priority 2011, published 2019).
Values after ≈ are worked out from the molar mass of the structure shown. Like-named read-outs stand apart in the source and are kept apart here.

Assays:
E. coli ATCC 25922 = assay: MIC, selected panel of bacterial strains (Example 5); format: cell-based, Escherichia coli; settings: Escherichia coli, ATCC25922, read-out: MICs against Gram negative bacteria E. coli ATCC 25922
B. thailandensis = format: cell-based, Burkholderia thailandensis
K. pneumoniae ATCC 33495 = assay: MIC on K. pneumoniae (Example 5); format: cell-based, Klebsiella pneumoniae; settings: sensitive strain
Description: (§1) MIC Values for all compounds were measured against a selection of bacterial strains. The MICs of 4-oxoquinolizines against a selection of Gram-negative and Gram-positive bacterial strains are shown in Table 13 in comparison with known antibiotics.

[1] = system: K. pneumoniae BAA-2146 (NDM-1, FQ-R); assay: MIC on K. pneumoniae (Example 5); format: cell-based, Klebsiella pneumoniae; settings: quinolone-resistant strain
Description: as §1

[2] = system: S. aureus ATCC 43300 (MRSA, FQ-S); assay: MIC, selected panel of bacterial strains (Example 5); format: cell-based, Staphylococcus aureus; settings: Staphylococcus aureus, read-out: MICs against Gram positive bacteria S. aureus ATCC 43300 (MRSA, FQ-S)
S. aureus ATCC 25923 = assay: as above; format: cell-based, Staphylococcus aureus
A. baumannii ATCC 19606 = assay: as above; format: cell-based, Acinetobacter baumannii
B. thailandensis E264 = assay: microbe, parasite or virus in culture; format: cell-based, Burkholderia thailandensis; settings: Burkholderia thailandensis, E264, read-out: MICs against Gram negative bacteria B. thailandensis E264
[3] = system: S. aureus BAA-1556 (USA300-Type) (MRSA, FQ-R); assay: MIC, selected panel of bacterial strains (Example 5); format: cell-based, Staphylococcus aureus; settings: Staphylococcus aureus, read-out: MICs against Gram positive bacteria S. aureus BAA-1556 (USA300-Type) (MRSA, FQ-R)
[4] = Staphylococcus aureus, ATCC25923, read-out: MICs against Gram positive bacteria S. aureus ATCC 25923
[5] = Acinetobacter baumannii, ATCC19606, read-out: MICs against Gram negative bacteria A. baumannii ATCC 19606

Row | Molecule | MIC (E. coli ATCC 25922) [µg/mL] | MIC [2] [µg/mL] | MIC (S. aureus ATCC 25923; [4]) [µg/mL] | other results
1 | Cc1c(-c2ccc3c(c2)CCN3)ccn2c(=O)c(C(=O)[O-])cc(C3CC3)c12.[K+] [Compound 77K salt, potassium 8-(indolin-5-yl)-1-cyclopropyl-9-methyl-4-oxo-4H-quinolizine-3-carboxylate] | 0.125 |  |  | 
2 | COc1c(-c2ccc(N)nc2)ccn2c(=O)c(C(=O)[O-])cc(C3CC3)c12.[K+] [Compound 89K salt, potassium 8-(6-amino-pyridin-3-yl)-1-cyclopropyl-9-methoxy-4-oxo-4H-quinolizine-3-carboxylate] | 0.125 |  |  | 
3 | 8-(4-amino-3-ethyl-5-methyl- phenyl)-1-cyclopropyl-9- methyl-4-oxo-quinolizine-3- carboxylic acid [Compound 16] |  |  |  | MIC90 B. thailandensis (B. thailandensis): <0.048 µg/mL
4 | CC(=O)NCc1ccc(-c2ccn3c(=O)c(C(=O)[O-])cc(C4CC4)c3c2C)cc1.[K+] [Compound 64K salt, potassium 8-(4-(Acetamidomethyl)phenyl)-1-cyclopropyl-9-methyl-4-oxo-4H-quinolizine-3-carboxylate] | 0.125 |  |  | 
5 | Cc1c(-c2ccc(N)nc2)ccn2c(=O)c(C(=O)[O-])cc(C3CC3)c12.[K+] [Compound 33K salt, potassium 8-(6-amino-pyridin-3-yl)-1-cyclopropyl-9-methyl-4-oxo-4H-quinolizine-3-carboxylate] |  |  |  | MICs K. pneumoniae ATCC 33495 (K. pneumoniae ATCC 33495): 0.064 µg/mL; MICs K. pneumoniae BAA-2146 (NDM-1, FQ-R) [1]: >8 µg/mL
6 | Cc1c(-c2ccc(O)cc2)c(F)cn2c(=O)c(C(=O)[O-])cc(C3CC3)c12.[K+] [Compound 61K salt, potassium 8-(4-hydroxyphenyl)-1-cyclopropyl-7-fluoro-9-methyl-4-oxo-4H-quinolizine-3-carboxylate] |  | < 0.004 | 50 | MIC (A. baumannii ATCC 19606; [5]): 0.125 µg/mL
7 | Cc1c(-c2ccc3c(cnn3C)c2)ccn2c(=O)c(C(=O)[O-])cc(C3CC3)c12.[K+] [Compound 81K salt, potassium 8-(1-methyl-1H-indazol-5-yl)-1-cyclopropyl-9-methyl-4-oxo-4H-quinolizine-3-carboxylate] |  | 50 | 50 | MIC (A. baumannii ATCC 19606; [5]): 0.125 µg/mL
8 | Cc1cn2c(=O)c(C(=O)[O-])cc(C3CC3)c2c(C)c1-c1ccc2[nH]ncc2c1.[K+] [Compound 88K salt, potassium 8-(1H-indazol-5-yl)-1-cyclopropyl-7,9-dimethyl-4-oxo-4H-quinolizine-3-carboxylate] | 0.125 |  |  | 
9 | Cc1c(-c2ccc3[nH]ncc3c2)c(F)cn2c(=O)c(C(=O)[O-])cc(C3CC3)c12.[K+] [Compound 75K salt, potassium 8-(1H-indazol-5-yl)-1-cyclopropyl-7-fluoro-9-methyl-4-oxo-4H-quinolizine-3-carboxylate] |  | 50 | 50 | 
10 | Cc1c(-c2ccc3cn[nH]c3c2)ccn2c(=O)c(C(=O)[O-])cc(C3CC3)c12.[K+] [Compound 83K salt, potassium 8-(1H-indazol-6-yl)-1-cyclopropyl-9-methyl-4-oxo-4H-quinolizine-3-carboxylate] |  | 50 | 50 | MIC (B. thailandensis E264): 0.125 µg/mL
11 | CNc1ccc(-c2ccn3c(=O)c(C(=O)[O-])cc(C4CC4)c3c2C)cc1C.[K+] [Compound 69K salt, potassium 8-(3-methyl-4-(methylamino)phenyl)-1-cyclopropyl-9-methyl-4-oxo-4H-quinolizine-3-carboxylate] | 0.125 | 50 | 50 | 
12 | Cc1c(-c2ccc3[nH]nc(C4CC4)c3c2)ccn2c(=O)c(C(=O)[O-])cc(C3CC3)c12.[K+] [Compound 71K salt, potassium 8-(3-cyclopropyl-1H-indazol-5-yl)-1-cyclopropyl-9-methyl-4-oxo-4H-quinolizine-3-carboxylate] | 0.125 | 50 | 50 | MIC [3]: 0.125 µg/mL
13 | Cc1cn2c(=O)c(C(=O)[O-])cc(C3CC3)c2c(C)c1-c1ccc(N)nc1.[K+] [Compound 87K salt, potassium 8-(6-amino-pyridin-3-yl)-1-cyclopropyl-7,9-dimethyl-4-oxo-4H-quinolizine-3-carboxylate] | 0.125 |  |  | 
14 | C[C@H]1c2cccc(O)c2C(=O)C2=C(O)[C@]3(O)C(=O)C(C(N)=O)=C(O)[C@@H](N(C)C)[C@@H]3[C@@H](O)[C@@H]21 [Doxycycline, reference compound] |  |  |  | MIC (S. aureus ATCC 25923; Staphylococcus aureus, ATCC25923; read-out: MICs against Gram positive bacteria S. aureus ATCC 25923): 0.125 µg/mL (≈ 0.281 µM); MIC (A. baumannii ATCC 19606; Acinetobacter baumannii, ATCC19606; read-out: MICs against Gram negative bacteria A. baumannii ATCC 19606): 0.125 µg/mL (≈ 0.281 µM)
15 | Cc1c(-c2cc(F)c(N)cc2F)ccn2c(=O)c(C(=O)[O-])cc(C3CC3)c12.[K+] [Compound 2K salt, potassium 8-(4-amino-2,5-difluoro-phenyl)-1-cyclopropyl-9-methyl-4-oxo-4H-quinolizine-3-carboxylate] |  |  |  | MIC (K. pneumoniae ATCC 33495; Klebsiella pneumoniae, ATCC33495, read-out: MICs K. pneumoniae ATCC 33495): 0.25 µg/mL
16 | Cc1c(-c2ccc(CN)s2)ccn2c(=O)c(C(=O)[O-])cc(C3CC3)c12.[K+] [Compound 13K salt, potassium 8-(5-(aminomethyl)thiophen-2-yl)-1-cyclopropyl-9-methyl-4-oxo-4H-quinolizine-3-carboxylate] |  |  |  | MIC (A. baumannii ATCC 19606; [5]): 0.125 µg/mL
17 | Cc1c(-c2cccc(O)c2)ccn2c(=O)c(C(=O)[O-])cc(C3CC3)c12.[K+] [Compound 56K salt, potassium 1-cyclopropyl-8-(3-hydroxyphenyl)-9-methyl-4-oxo-4H-quinolizine-3-carboxylate] |  |  |  | MIC (A. baumannii ATCC 19606; [5]): 0.125 µg/mL; MIC [3]: 0.125 µg/mL
18 | COc1cc(-c2ccn3c(=O)c(C(=O)[O-])cc(C4CC4)c3c2C)ccc1O.[K+] [Compound 66K salt, potassium 8-(4-hydroxy-3-methoxyphenyl)-1-cyclopropyl-9-methyl-4-oxo-4H-quinolizine-3-carboxylate] | 0.125 |  |  | 
19 | Cc1c(-c2ccc(N3CCNCC3)nc2)ccn2c(=O)c(C(=O)[O-])cc(C3CC3)c12.[K+] [Compound 84K salt, potassium 8-(6-(piperazin-1-yl)pyridin-3-yl)-1-cyclopropyl-9-methyl-4-oxo-4H-quinolizine-3-carboxylate] |  | 0.125 | 0.125 | 
20 | Cc1c(-c2ccc3sc(N)nc3c2)ccn2c(=O)c(C(=O)[O-])cc(C3CC3)c12.[K+] [Compound 73K salt, potassium 8-(2-aminobenzo[d]thiazol-5-yl)-1-cyclopropyl-9-methyl-4-oxo-4H-quinolizine-3-carboxylate] |  | 50 | 50 | MIC (A. baumannii ATCC 19606; [5]): 0.125 µg/mL
21 | Cc1c(-c2ccc(O)c(F)c2)ccn2c(=O)c(C(=O)[O-])cc(C3CC3)c12.[K+] [Compound 70K salt, potassium 8-(3-fluoro-4-hydroxyphenyl)-1-cyclopropyl-9-methyl-4-oxo-4H-quinolizine-3-carboxylate] |  | 50 | 50 | MIC (A. baumannii ATCC 19606; [5]): 0.125 µg/mL
22 | Cc1n[nH]c2ccc(-c3ccn4c(=O)c(C(=O)[O-])cc(C5CC5)c4c3C)cc12.[K+] [Compound 80K salt, potassium 8-(3-methyl-1H-indazol-5-yl)-1-cyclopropyl-9-methyl-4-oxo-4H-quinolizine-3-carboxylate] |  | 50 | 50 | MIC [3]: 0.125 µg/mL
23 | Cc1c(-c2ccc3c(c2)C(=O)NC3)ccn2c(=O)c(C(=O)[O-])cc(C3CC3)c12.[K+] [Compound 68K salt, potassium 8-(3-oxoisoindolin-5-yl)-1-cyclopropyl-9-methyl-4-oxo-4H-quinolizine-3-carboxylate] |  | 50 | 50 | 
24 | Cc1cc(-c2ccn3c(=O)c(C(=O)[O-])cc(C4CC4)c3c2C)cnc1N.[K+] [Compound 79K salt, potassium 8-(6-amino-5-methylpyridin-3-yl)-1-cyclopropyl-9-methyl-4-oxo-4H-quinolizine-3-carboxylate] |  | 50 | 50 | MIC [3]: 0.125 µg/mL
25 | COc1c(-c2ccc3[nH]ncc3c2)ccn2c(=O)c(C(=O)[O-])cc(C3CC3)c12.[K+] [Compound 90K salt, potassium 8-(1H-indazol-5-yl)-1-cyclopropyl-9-methoxy-4-oxo-4H-quinolizine-3-carboxylate] | 0.125 |  |  | 
26 | CNc1ccc(-c2ccn3c(=O)c(C(=O)[O-])cc(C4CC4)c3c2C)cn1.[K+] [Compound 78K salt, potassium 8-(6-(methylamino)pyridin-3-yl)-1-cyclopropyl-9-methyl-4-oxo-4H-quinolizine-3-carboxylate] |  |  |  | MIC (A. baumannii ATCC 19606; [5]): 0.125 µg/mL; MIC [3]: 0.125 µg/mL
27 | Cc1c(-c2cnc3[nH]ccc3c2)ccn2c(=O)c(C(=O)[O-])cc(C3CC3)c12.[K+] [Compound 85K salt, potassium 8-(1H-pyrrolo[2,3-b]pyridin-5-yl)-1-cyclopropyl-9-methyl-4-oxo-4H-quinolizine-3-carboxylate] |  | 50 | 50 | 
